Data reported in publication PMC7461116, “Synthesis, Anticonvulsant and Antinociceptive Activity of New Hybrid Compounds: Derivatives of 3-(3-Methylthiophen-2-yl)-pyrrolidine-2,5-dione” (International Journal of Molecular Sciences, 2020).
Where a name gives a salt, the structure may show the parent alone.

Experiments:
[1] = tested on: 6 Hz psychomotor seizures; experiment: 6 Hz (32 mA) psychomotor seizure test; assay type: in vivo, mice; conditions: Mus musculus, 32 mA; for responders at 100 mg/kg: mice, ip, 0.5 h, read-out: 6 Hz: number of mice protected/number of mice tested (converted)
Text: Psychomotor seizures were induced via corneal stimulation (6 Hz, 32 mA, 0.2 ms rectangular pulse width, 3 s duration) using a constant-current device (ECT Unit 57800, Ugo Basile, Italy). A drop of 1% solution of lidocaine hydrochloride was applied to the mouse corneas before stimulation to provide local anesthesia and ensure optimal current conductivity. After the electrical stimulation, mice were gently released and observed for the presence or absence of seizure activity, being characterized by immobility associated with rearing, forelimb clonus, twitching of the vibrissae, stun, and Straub-tail. Lack of the above symptoms or their cessation within 10 s from the stimulation was considered as absence of seizure activity. The initial anticonvulsant screening of the tested compounds was performed at a fixed dose of 100 mg/kg (four mice per group). Then ED50 was calculated for active compounds as described above.

[2] = tested on: maximal electroshock seizures; experiment: Maximal electroshock seizure (MES) test; assay type: in vivo, mice; conditions: Mus musculus; mice, ip, 100 mg/kg, 0.5 h; read-out: MES: number of mice protected/number of mice tested (converted)
Procedure: The MES test was performed as previously described. Stimuli (25 mA, 0.2 s, 50 Hz) were generated by a constant current stimulator (Rodent shocker, Type 221, Hugo Sachs Elektronik, Germany) and delivered with the use of auricular electrodes. During the stimulation, each mouse was restrained manually, and immediately after the stimulation gently released for observation. The endpoint was the tonic extension of the hind limbs. Mice not displaying hindlimb tonic extension were considered to be protected from seizure. The initial anticonvulsant screening of the tested compounds was performed at a fixed dose of 100 mg/kg (four mice per group). […] To evaluate the ED50, at least three groups of animals were injected with various doses of tested compounds. Each group consisted of six animals.

[3] = tested on: motor impairment on rotarod; experiment: Rotarod test (acute neurotoxicity, NT); assay type: in vivo; conditions: ip, 100 mg/kg, 0.5 h
Procedure: In this test mice were trained to balance on an accelerating rotarod that rotated at 10 rotations per minute (Rotarod apparatus, May Commat RR0711, Turkey; rod diameter: 3 cm). During the training session, the animals were placed on a rotating rod for 3 min with an unlimited number of trials. Proper experiment was conducted 24 h after the training trial. On the test day, trained mice were intraperitoneally pretreated with the test compound at a dose of 100 mg/kg and just before the MES test were tested on the rotarod. Neurotoxicity was indicated by the inability of the animal to maintain equilibration on the rod for 1 min. […] Each group consisted of six animals.

[4] = tested on: Hep G2 cells; experiment: Hepatotoxicity, PrestoBlue viability assay; assay type: cell-based, human; conditions: 1–100 μM, 24 h
Procedure: Hepatotoxicity of tested compounds was assessed in PrestoBlue (Thermo Fisher Scientific, Waltham, MA, USA) Experiments on microplate reader (SpectraMax® iD3, Molecular Devices, San Jose, CA, USA) using human hepatocellular carcinoma cells (Hep G2) ATCC® […]. The cells were cultured in standard conditions (37 °C, 5% CO2), in Dulbecco’s Modified Eagle’s Medium-high glucose, (DMEM, Gibco, Thermo Fisher Scientific, Waltham, MA, USA) supplemented with 10% fetal bovine serum (Thermo Fisher Scientific, Waltham, MA, USA), with added 100 IU/mL penicillin (Sigma Aldrich, Steinheim, Germany) and 100 µg/mL streptomycin (Sigma Aldrich). PrestoBlue reagent is a resazurin-based solution that functions as a cell viability indicator. Metabolically active cells are capable of reducing the PrestoBlue reagent, with the colorimetric changes used as an indicator to quantify the viability of cells in culture. This change can be determined by measuring the fluorescence. After 24 h of incubation with the compounds PrestoBlue reagent was added to wells of a microplate. After 20 min of incubation at 37 °C, the fluorescence intensity (EX 530; EM 580 nm) was measured in a plate reader. Viability values were calculated as a percentage of live cells with respect to the control sample (DMSO). The negative control was medium without cells. Astemizole was used as a reference substance.

[5] = tested on: PTZ-induced clonic seizures; experiment: Subcutaneous pentylenetetrazole (scPTZ) seizure test; assay type: in vivo; conditions: mice, 100 mg/kg
Procedure: Clonic convulsions were induced by the subcutaneous (sc) administration of PTZ at a dose of 100 mg/kg. After PTZ injection, the mice were placed separately and observed during the next 30 min for the occurrence of clonic seizures. Clonic seizures were defined as clonus of the whole body lasting more than 3 s, with an accompanying loss of righting reflex. The latency to first clonus, the number of seizure episodes, and mortality rate were noted and compared with vehicle-treated and drug-treated groups. The absence of clonic convulsions within the observed time period was interpreted as the compound’s ability to protect against PTZ-induced seizures.

[6] = tested on: latency time to pain reaction; experiment: Hot plate test; assay type: in vivo; conditions: mice, 5 mg/kg, p < 0.001
Procedure: The hot plate test was carried out based on the Eddy and Leimbach (1953) method. In this test, the apparatus was equipped with an electrically heated surface with a temperature controller that maintains surface temperature to a set point. Herein, the temperature was set at 55 °C. The animals were treated ip either with the test compounds, or vehicle 30 min before placing the animal on a hot plate apparatus. Latency time to pain reaction, i.e., the time until the animal licked its back paws or jumped was recorded by means of the stopwatch.

Row | Structure (SMILES) | responders at 100 mg/kg [1] | responders at 100 mg/kg [2] | NT: number of mice with motor impairment/number of mice tested [3] | melting point | further results
1 | Cc1ccsc1C1CC(=O)N(CCCN2CCN(c3ccc(Cl)cc3)CC2)C1=O (racemic) [Compound 8, (R,S)-1-(3-(4-(4-Chlorophenyl)piperazin-1-yl)propyl)-3-(3-methylthiophen-2-yl)pyrrolidine-2,5-dione hydrochloride] | 25% | 25% | 0/4 |  | 
2 | COc1ccc(CCN2CCC(Nc3nc4ccccc4n3Cc3ccc(F)cc3)CC2)cc1 [Astemizole, reference compound] |  |  |  |  | Hepatotoxicity in HepG2 cells, in words [4]: inhibits the viability of HepG2 cells in a dose-dependent manner
3 | Cc1ccsc1C1CC(=O)N(CC(=O)N2CCN(c3cccc(C(F)(F)F)c3)CC2)C1=O (racemic) [Compound 12, (R,S)-3-(3-Methylthiophen-2-yl)-1-(2-oxo-2-(4-(3-(trifluoromethyl)phenyl)piperazin-1-yl)ethyl)pyrrolidine-2,5-dione] | 0% | 0% | 1/4 | 135 to 137 °C | 
4 | Cc1ccsc1C1CC(=O)N(CC(=O)N2CCN(c3ccc(Cl)cc3)CC2)C1=O (racemic) [Compound 15, (R,S)-1-(2-(4-(4-Chlorophenyl)piperazin-1-yl)-2-oxoethyl)-3-(3-methylthiophen-2-yl)pyrrolidine-2,5-dione] | 25% | 0% | 0/4 | 179 to 181 °C | 
5 | Cc1ccsc1C1CC(=O)N(CCCN2CCN(c3cccc(Cl)c3)CC2)C1=O (racemic) [Compound 7, (R,S)-1-(3-(4-(3-Chlorophenyl)piperazin-1-yl)propyl)-3-(3-methylthiophen-2-yl)pyrrolidine-2,5-dione hydrochloride] | 0% | 0% | 2/4 |  | 
6 | Cc1ccsc1C1CC(=O)N(CC(=O)N2CCN(c3ccc(F)cc3)CC2)C1=O (racemic) [Compound 11, (R,S)-1-(2-(4-(4-Fluorophenyl)piperazin-1-yl)-2-oxoethyl)-3-(3-methylthiophen-2-yl)pyrrolidine-2,5-dione] | 0% | 0% | 0/4 | 165 to 166 °C | 
7 | Cc1ccsc1C1CC(=O)N(CC(=O)N2CCN(c3ccccc3Cl)CC2)C1=O (racemic) [Compound 13, (R,S)-1-(2-(4-(2-Chlorophenyl)piperazin-1-yl)-2-oxoethyl)-3-(3-methylthiophen-2-yl)pyrrolidine-2,5-dione] | 25% | 0% | 0/4 | 141 to 143 °C | 
8 | Cc1ccsc1C1CC(=O)N(CCCN2CCN(c3ccc(F)cc3)CC2)C1=O (racemic) [Compound 5, (R,S)-1-(3-(4-(4-Fluorophenyl)piperazin-1-yl)propyl)-3-(3-methylthiophen-2-yl)pyrrolidine-2,5-dione hydrochloride] | 0% | 0% | 4/4 |  | 
9 | Cc1ccsc1C1CC(=O)N(CC(=O)N2CCN(c3ccc(Cl)c(Cl)c3)CC2)C1=O (racemic) [Compound 17, (R,S)-1-(2-(4-(3,4-Dichlorophenyl)piperazin-1-yl)-2-oxoethyl)-3-(3-methylthiophen-2-yl)pyrrolidine-2,5-dione] | 50% | 0% | 0/4 |  | ED50 ([1]; mice ip, 95% confidence limit in brackets): > 150 mg/kg; scPTZ: effect in words [5]: no significant effect
10 | Cc1ccsc1C1CC(=O)N(CCCN2CCN(c3cccc(Cl)c3)CC2)C1=O (racemic) (as salt: hydrochloride) [Compound 7, (R,S)-1-(3-(4-(3-Chlorophenyl)piperazin-1-yl)propyl)-3-(3-methylthiophen-2-yl)pyrrolidine-2,5-dione hydrochloride] |  |  |  | 181.5 to 183.5 °C | 
11 | Cc1ccsc1C1CC(=O)N(CCCN2CCN(c3ccc(Cl)c(Cl)c3)CC2)C1=O (racemic) (as salt: hydrochloride) [Compound 9, (R,S)-1-(3-(4-(3,4-Dichlorophenyl)piperazin-1-yl)propyl)-3-(3-methylthiophen-2-yl)pyrrolidine-2,5-dione hydrochloride] |  |  |  | 101 to 103 °C | 
12 | Cc1ccsc1C1CC(=O)N(CCCN2CCN(c3ccc(Cl)cc3)CC2)C1=O (racemic) (as salt: hydrochloride) [Compound 8, (R,S)-1-(3-(4-(4-Chlorophenyl)piperazin-1-yl)propyl)-3-(3-methylthiophen-2-yl)pyrrolidine-2,5-dione hydrochloride] |  |  |  | 68 to 70 °C | 
13 | Cc1ccsc1C1CC(=O)N(CCCN2CCN(c3cccc(C(F)(F)F)c3)CC2)C1=O (racemic) (as salt: hydrochloride) [Compound 6, (R,S)-3-(3-Methylthiophen-2-yl)-1-(3-(4-(3-(trifluoromethyl)phenyl)piperazin-1-yl)propyl)pyrrolidine-2,5-dione hydrochloride] |  |  |  | 183 to 185 °C | 
14 | CN1CC[C@]23c4c5ccc(O)c4O[C@H]2[C@@H](O)C=C[C@H]3[C@H]1C5 [morphine, reference compound] |  |  |  |  | Hot plate: prolongation of latency time to pain reaction [6]: 74%
15 | Cc1ccsc1C1CC(=O)N(CC(=O)N2CCOCC2)C1=O (racemic) [Compound 10, (R,S)-3-(3-Methylthiophen-2-yl)-1-(2-morpholino-2-oxoethyl)pyrrolidine-2,5-dione] | 25% | 0% | 0/4 | 142 to 144 °C | 
16 | Cc1ccsc1C1CC(=O)N(CC(=O)N2CCN(c3cccc(Cl)c3Cl)CC2)C1=O (racemic) [Compound 16, (R,S)-1-(2-(4-(2,3-Dichlorophenyl)piperazin-1-yl)-2-oxoethyl)-3-(3-methylthiophen-2-yl)pyrrolidine-2,5-dione] | 0% | 0% | 0/4 | 112 to 113.5 °C | 
17 | Cc1ccsc1C1CC(=O)N(CCCN2CCN(c3ccc(F)cc3)CC2)C1=O (racemic) (as salt: hydrochloride) [Compound 5, (R,S)-1-(3-(4-(4-Fluorophenyl)piperazin-1-yl)propyl)-3-(3-methylthiophen-2-yl)pyrrolidine-2,5-dione hydrochloride] |  |  |  | 160 to 162 °C | 
